In brackets after ≈: the same amount, converted by molar mass. Read-outs that look alike come from different tables or passages of the source. Each block holds one molecule with its values, some of them ahead of it.
Experiments:
Format in all cases: cell-based
[1] = system: Staphylococcus aureus 209PJCl; test: In vitro antibacterial activity, Staphylococcus aureus 209PJCl (Table 1)
Method: (§1) Typical compounds out of the compounds described in Examples were classified into some groups. On each compound group, in vitro antibacterial activities were tested by a method known per se in the art.

[2] = system: Escherichia coli MIHJ JC-2; test: In vitro antibacterial activity, Escherichia coli MIHJ JC-2 (Table 1); details: MIHJJC2
Method: as §1

[3] = system: Klebsiella pneumoniae IID 875; test: In vitro antibacterial activity, Klebsiella pneumoniae IID 875 (Table 1); details: IID875
Method: as §1

[4] = system: Serratia marcescens IID 620; test: In vitro antibacterial activity, Serratia marcescens IID 620 (Table 1); details: IID620
Method: as §1

[5] = system: Morganella morganii IID 602; test: In vitro antibacterial activity, Morganella morganii IID 602 (Table 1); details: IID602
Method: as §1

[6] = system: Staphylococcus aureus 209-P; test: In vitro antibacterial activity, Staphylococcus aureus 209-P (Tables 2-6); details: Staphylococcus aureus, 209P
Method: as §1

[7] = system: Escherichia coli NIHJ; test: In vitro antibacterial activity, Escherichia coli NIHJ (Tables 2-6); details: Escherichia coli
Method: as §1

[8] = system: Klebsiella pneumoniae EK-6; test: In vitro antibacterial activity, Klebsiella pneumoniae EK-6 (Tables 2-6); details: Klebsiella pneumoniae
Method: as §1

[9] = system: Serratia marcescens ES-75; test: In vitro antibacterial activity, Serratia marcescens ES-75 (Tables 2-6); details: Serratia marcescens
Method: as §1

[10] = system: Morganella morganii EP-14; test: In vitro antibacterial activity, Morganella morganii EP-14 (Tables 2-6); details: Morganella morganii
Method: as §1

[11] = Staphylococcus aureus 209PJCl, read-out: MIC
[12] = Escherichia coli MIHJ JC-2, read-out: MIC
[13] = Klebsiella pneumoniae IID 875, read-out: MIC
[14] = Serratia marcescens IID 620, read-out: MIC
[15] = Morganella morganii IID 602, read-out: MIC
[16] = Staphylococcus aureus 209-P, read-out: MIC
[17] = Escherichia coli NIHJ, read-out: MIC
[18] = EK6, Klebsiella pneumoniae EK-6, read-out: MIC
[19] = ES75, Serratia marcescens ES-75, read-out: MIC
[20] = EP14, Morganella morganii EP-14, read-out: MIC

Compound: NC(=O)OC/C=C\C1=C(C(=O)[O-])N2C(=O)C(NC(=O)/C(=N\O)c3csc(N)n3)[C@H]2SC1.[Na+] (some centres unmarked) [Example 1, Sodium 7-[(Z)-2-(2-aminothiazol-4-yl)-2-hydroxyiminoacetamido]-3-[(Z)-3-carbamoyloxy-1-propenyl]-3-cephem-4-carboxylate]
MIC ([1]; Staphylococcus aureus, 209PJCL): 0.1 µg/mL
MIC ([2]; Escherichia coli): 0.025 µg/mL
MIC ([3]; Klebsiella pneumoniae): 0.012 µg/mL
MIC ([4]; Serratia marcescens): 0.025 µg/mL
MIC ([5]; Morganella morganii): 0.012 µg/mL

Compound: CO/N=C(\C(=O)NC1C(=O)N2C(C(=O)[O-])=C(/C=C\COC(N)=O)CS[C@H]12)c1csc(N)n1.[Na+] (some centres unmarked) [Example 7, Sodium 7-[(Z)-2-(2-aminothiazol-4-Yl)-2-methoxyiminoacetamido]-3-[(Z)-3-carbamoyloxy-1-propenyl]-3-cephem-4-carboxylate]
MIC ([1]; Staphylococcus aureus, 209PJCL): 0.8 µg/mL
MIC ([2]; Escherichia coli): 0.2 µg/mL
MIC ([3]; Klebsiella pneumoniae): 0.025 µg/mL
MIC ([4]; Serratia marcescens): 0.025 µg/mL
MIC ([5]; Morganella morganii): 0.025 µg/mL

Compound: CNC(=O)OC/C=C\C1=C(C(=O)[O-])N2C(=O)C(NC(=O)/C(=N\O)c3csc(N)n3)[C@H]2SC1.[Na+] (some centres unmarked) [Example 9, Sodium 7-[(Z)-2-(2-aminothiazol-4-yl)-2-hydroxyiminoacetamido]-3-[(Z)-3-(N-methylcarbamoyloxy)-1-propenyl]-3-cephem-4-carboxylate]
MIC ([1]; Staphylococcus aureus, 209PJCL): 0.1 µg/mL
MIC ([2]; Escherichia coli): 0.05 µg/mL
MIC ([3]; Klebsiella pneumoniae): 0.012 µg/mL
MIC ([4]; Serratia marcescens): 0.8 µg/mL
MIC ([5]; Morganella morganii): 0.1 µg/mL

MIC [1, 11]: 0.1 µg/mL (≈ 0.209 µM)
MIC [2, 12]: 0.1 µg/mL (≈ 0.209 µM)
MIC [3, 13]: 0.05 µg/mL (≈ 0.105 µM)
MIC [4, 14]: 0.8 µg/mL (≈ 1.68 µM)
MIC [5, 15]: 0.05 µg/mL (≈ 0.105 µM)
Compound: Nc1nc(/C(=N/O)C(=O)NC2C(=O)N3C(C(=O)O)=C(/C=C/Cn4cnnn4)CSC23)cs1 (centres unmarked) [Example 11, 7-[2-(2-Aminothiazole)-2-hydroxyiminoacetamido]-3-(3-1H-tetrazolyl-1-propenyl-1-yl)-3-cephem-4-carboxylate]

MIC [1, 11]: 0.1 µg/mL (≈ 0.209 µM)
MIC [2, 12]: 0.1 µg/mL (≈ 0.209 µM)
MIC [3, 13]: 0.1 µg/mL (≈ 0.209 µM)
MIC [4, 14]: 0.8 µg/mL (≈ 1.68 µM)
MIC [5, 15]: 0.05 µg/mL (≈ 0.105 µM)
Compound: Nc1nc(/C(=N/O)C(=O)NC2C(=O)N3C(C(=O)O)=C(/C=C/Cn4ncnn4)CSC23)cs1 (centres unmarked) [Example 12, 7-[2-(2-Aminothiazole)-2-hydroxyiminoacetamido]-3-(3-2H-tetrazolyl-1-propenyl-1-yl)-3-cephem-4-carboxylic Acid]

Compound: NC(=O)OC/C=C/C1=C(C(=O)[O-])N2C(=O)C(NC(=O)/C(=N\O)c3csc(N)n3)[C@H]2SC1.[Na+] (some centres unmarked) [Example 13, Sodium 7-[(Z)-2-(2-aminothiazol-4-yl)-2-hydroxyiminoacetamido]-3-[(E)-3-carbamoyloxy-1-propenyl]-3-cephem-4-carboxylate]
MIC ([1]; Staphylococcus aureus, 209PJCL): 0.1 µg/mL
MIC ([2]; Escherichia coli): 0.1 µg/mL
MIC ([3]; Klebsiella pneumoniae): 0.025 µg/mL
MIC ([4]; Serratia marcescens): 0.1 µg/mL
MIC ([5]; Morganella morganii): 0.05 µg/mL

Compound: CO/N=C(\C(=O)N[C@@H]1C(=O)N2C(C(=O)[O-])=C(/C=C/c3cnccn3)CS[C@H]12)c1csc(N)n1.[Na+] [Example 27, Sodium 7β-[(Z)-2-(2-aminothiazol-4-yl)-2-(methoxyimino)acetamido]-3-[(E)-2-(pyrazin-2-yl)vinyl]-3-cephem-4-carboxylate]
MIC [6]: 0.8 µg/mL
MIC [7]: 0.2 µg/mL
MIC ([8]; EK6): 0.1 µg/mL
MIC ([9]; ES75): 0.05 µg/mL
MIC ([10]; EP14): 0.05 µg/mL

Compound: CO/N=C(\C(=O)N[C@@H]1C(=O)N2C(C(=O)[O-])=C(/C=C\c3c(Cl)ncnc3Cl)CS[C@H]12)c1csc(N)n1.[Na+] [Example 29 (Z), Sodium 7β-[(Z)-2-(2-aminothiazol-4-yl)-2-(methoxyimino)acetamido]-3-[(Z)-2-(4,6-dichloropyrimidin-5-yl)vinyl]-3-cephem-4-carboxylate]
MIC [6]: 1.56 µg/mL
MIC [7]: 3.13 µg/mL
MIC ([8]; EK6): 7.56 µg/mL
MIC ([9]; ES75): 3.13 µg/mL
MIC ([10]; EP14): 0.8 µg/mL

Compound: CN(C)C(=O)OC/C=C\C1=C(C(=O)[O-])N2C(=O)C(NC(=O)/C(=N\O)c3csc(N)n3)[C@H]2SC1.[Na+] (some centres unmarked) [Example 30, Sodium 7-[(Z)-2-(2-aminothiazol-4-yl)-2-hydroxyiminoacetamido]-3-[(Z)-3-(N,N-dimethylcarbamoyloxy)-1-propenyl]-3-cephem-4-carboxylate]
MIC [6]: 0.2 µg/mL
MIC [7]: 0.2 µg/mL
MIC ([8]; EK6): 0.2 µg/mL
MIC ([9]; ES75): 0.05 µg/mL
MIC ([10]; EP14): 0.05 µg/mL

Compound: CNC(=O)OC/C=C\C1=C(C(=O)[O-])N2C(=O)C(NC(=O)/C(=N\O)c3csc(N)n3)[C@H]2SC1.[Na+] (some centres unmarked) [Example 33, Sodium 7-[(Z)-2-(2-aminothiazol-4-yl)-2-hydroxyiminoacetamido]-3-[(Z)-3-(N-methylcarbamoyloxy)-1-propenyl]-3-cephem-4-carboxylate]
MIC [6]: 0.1 µg/mL
MIC [7]: 0.025 µg/mL
MIC ([8]; EK6): 0.012 µg/mL
MIC ([9]; ES75): 0.025 µg/mL
MIC ([10]; EP14): ≤ 0.006 µg/mL

MIC [6, 16]: 0.8 µg/mL (≈ 1.61 µM)
MIC [7, 17]: 0.2 µg/mL (≈ 0.403 µM)
MIC [8, 18]: 0.05 µg/mL (≈ 0.101 µM)
MIC [9, 19]: 0.05 µg/mL (≈ 0.101 µM)
MIC [10, 20]: 0.012 µg/mL (≈ 0.0242 µM)
Compound: CNC(=O)OC/C=C\C1=C(C(=O)O)N2C(=O)C(NC(=O)/C(=N\OC)c3csc(N)n3)C2SC1 (centres unmarked) [Example 38]

Compound: CC(C)NC(=O)OC/C=C\C1=C(C(=O)[O-])N2C(=O)C(NC(=O)/C(=N\O)c3csc(N)n3)[C@H]2SC1.[Na+] (some centres unmarked) [Example 40, Sodium 7-[(Z)-2-(2-aminothiazol-4-yl)-2-hydroxyiminoacetamido]-3-[(Z)-3-(N-isopropylcarbamoyloxy)-1-propenyl]-3-cephem-4-carboxylate]
MIC [6]: 0.2 µg/mL
MIC [7]: 0.1 µg/mL
MIC ([8]; EK6): 0.1 µg/mL
MIC ([9]; ES75): 0.05 µg/mL
MIC ([10]; EP14): 0.025 µg/mL

Compound: CCNC(=O)OC/C=C\C1=C(C(=O)[O-])N2C(=O)C(NC(=O)/C(=N\O)c3csc(N)n3)[C@H]2SC1.[Na+] (some centres unmarked) [Example 42, Sodium 7-[(Z)-2-(2-aminothiazol-4-yl)-2-hydroxyiminoacetamido]-3-[(Z)-3-(N-ethylcarbamoyloxy)-1-propenyl]-3-cephem-4-carboxylate]
MIC [6]: 0.1 µg/mL
MIC [7]: 0.05 µg/mL
MIC ([8]; EK6): 0.05 µg/mL
MIC ([9]; ES75): 0.05 µg/mL
MIC ([10]; EP14): ≤ 0.006 µg/mL

Compound: Nc1nc(/C(=N/O)C(=O)NC2C(=O)N3C(C(=O)[O-])=C(/C=C\COC(=O)NCCCl)CS[C@H]23)cs1.[Na+] (some centres unmarked) [Example 44, Sodium 7-[(Z)-2-(2-aminothiazol-4-yl)-2-hydroxyiminoacetamido]-3-[(Z)-3-(N-(2-chloroethyl)carbamoyloxy)-1-propenyl]-3-cephem-4-carboxylate]
MIC [6]: 0.1 µg/mL
MIC [7]: 0.05 µg/mL
MIC ([8]; EK6): 0.05 µg/mL
MIC ([9]; ES75): 0.05 µg/mL
MIC ([10]; EP14): ≤ 0.006 µg/mL

MIC [6, 16]: 0.2 µg/mL
MIC [7, 17]: 0.1 µg/mL
MIC [8, 18]: 0.05 µg/mL
MIC [9, 19]: 0.05 µg/mL
MIC [10, 20]: 0.012 µg/mL
Compound: C=CCNC(=O)OC/C=C\C1=C(C(=O)O)N2C(=O)C(NC(=O)/C(=N\O)c3csc(N)n3)C2SC1 (centres unmarked) [Example 46, Sodium 7-[(Z)-2-(2-aminothiazol-4-yl)-2-hydroxyiminoacetamido]-3-[(Z)-30(N-allylcarbamoyloxy)-1-propenyl] -3-cephem-4-carboxylate]

Compound: CO/N=C(\C(=O)N[C@@H]1C(=O)N2C(C(=O)[O-])=C(/C=C\C3CCCO3)CS[C@H]12)c1csc(N)n1.[Na+] (stereo partly drawn) [Example 49, Sodium 7β-[(Z)-2-aminothiazol-4-yl-2-methoxyiminoacetamido]-3-[(Z)-2-(tetrahydrofuran-2-yl)vinyl]-3-cephem-4-carboxylate]
MIC [6]: 1.56 µg/mL
MIC [7]: 0.8 µg/mL
MIC ([8]; EK6): 0.4 µg/mL
MIC ([9]; ES75): 0.05 µg/mL
MIC ([10]; EP14): 0.1 µg/mL

Compound: CO/N=C(\C(=O)N[C@@H]1C(=O)N2C(C(=O)[O-])=C(/C=C/C3CCC(=O)O3)CS[C@H]12)c1csc(N)n1.[Na+] (stereo partly drawn) [Example 52, Sodium 7β-[(Z)-2-aminothiazol-4-yl-2-methoxyiminoacetamido]-3-[(E)-2-(5-oxotetrahydrofuran 2-yl)vinyl]-3-cephem-4-carboxylate]
MIC [6]: 0.4 µg/mL
MIC [7]: 0.1 µg/mL
MIC ([8]; EK6): 0.025 µg/mL
MIC ([9]; ES75): 0.012 µg/mL
MIC ([10]; EP14): ≤ 0.006 µg/mL

MIC [6, 16]: 0.1 µg/mL (≈ 0.165 µM)
MIC [7, 17]: 0.025 µg/mL (≈ 0.0411 µM)
MIC [8, 18]: 0.025 µg/mL (≈ 0.0411 µM)
MIC [9, 19]: 0.05 µg/mL (≈ 0.0823 µM)
MIC [10, 20]: 0.025 µg/mL (≈ 0.0411 µM)
Compound: CO/N=C(\C(=O)N[C@@H]1C(=O)N2C(C(=O)OCOC(=O)C(C)(C)C)=C(/C=C/C3CCC(=O)O3)CS[C@H]12)c1csc(N)n1 (stereo partly drawn) [Example 53, Pivaloyloxymethyl 7β-[(Z)-2-aminothiazol-4-yl-2-methoxyiminoacetamido]-3-[(E)-2-(5 oxotetrahydrofuran-2-yl)vinyl]-3-cephem-4-carboxylate]

MIC [6, 16]: 0.1 µg/mL (≈ 0.182 µM)
MIC [7, 17]: 0.4 µg/mL (≈ 0.728 µM)
MIC [8, 18]: 0.2 µg/mL (≈ 0.364 µM)
MIC [9, 19]: 0.8 µg/mL (≈ 1.46 µM)
MIC [10, 20]: 0.1 µg/mL (≈ 0.182 µM)
Compound: CC(C)(C)C(=O)OCOC(=O)C1=C(/C=C\C2CC2)CS[C@@H]2[C@H](NC(=O)/C(=N\O)c3csc(N)n3)C(=O)N12 [Example 58, Pivaloyloxymethyl 7-62-[(Z)-2-(2-aminothiazol-4-yl)-2-hydroxyiminoacetamido]-3-[(Z)-cyclopropylvinyl]-3-cephem-4-carboxylate]
